Values of other authors as cited in patent US6124328A, “Methods and compositions for stimulating neurite growth” (Vertex Pharmaceuticals Incorporated, priority 1997, dated 2000).

What was measured:
ryanodine receptor (RyR) = conditions: cited from earlier work
[1] = system: PC12 rat pheochromocytoma cells; conditions: Lyons et al., cited from earlier work
[2] = system: dorsal root ganglia (sensory ganglia); conditions: Lyons et al., cited from earlier work
[3] = system: inositol 1,4,5-triphosphate receptor (IP3 R); conditions: cited from earlier work

Structure (SMILES)	dissociating FKBP12 from the receptor (ryanodine receptor (RyR))	neurite outgrowth (synergy with NGF) ([1]; with NGF, rat pheochromocytoma cell line)	neurotrophic effects in sensory ganglia [2]	dissociating FKBP12 from the receptor [3]	effect on FK-506-induced neurite outgrowth ([1]; with FK-506)	neurotrophic effect in combination with FK-506 ([1]; with FK-506)	effect on FK-506 neurotrophic effects in sensory ganglia ([2]; with FK-506)
C=CC[C@@H]1/C=C(\C)C[C@H](C)C[C@H](OC)[C@H]2O[C@@](O)(C(=O)C(=O)N3CCCC[C@H]3C(=O)O[C@H](/C(C)=C/[C@@H]3CC[C@@H](O)[C@H](OC)C3)[C@H](C)[C@@H](O)CC1=O)[C@H](C)C[C@@H]2OC [FK-506]	capable of dissociating FKBP12 from the receptor	acts synergistically with nerve growth factor (NGF) in stimulating neurite outgrowth	demonstrated similar neurotrophic effects	capable of dissociating FKBP12 from the receptor	–	–	–
CO[C@H]1C[C@@H]2CC[C@@H](C)[C@@](O)(O2)C(=O)C(=O)N2CCCC[C@H]2C(=O)O[C@H]([C@H](C)C[C@@H]2CC[C@@H](O)[C@H](OC)C2)CC(=O)[C@H](C)/C=C(\C)[C@@H](O)[C@@H](OC)C(=O)[C@H](C)C[C@H](C)/C=C/C=C/C=C/1C [rapamycin]	capable of dissociating FKBP12 from the receptor	–	–	capable of dissociating FKBP12 from the receptor	did not inhibit the effects of FK-506 on neurite outgrowth	additive effect with FK-506	those effects were blocked by rapamycin
